Legend:
Type in all cases: in vivo
[1] = system: barnyardgrass (Echinochloa crus-galli); test: Test G Pre-Emergence Protocol; conditions: Echinochloa crus-galli, pre-emergence, 312 h, evaluated after 13 days
Outline: (§1)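 Herbicidal effect was rated 13 days post-application on a scale where 100 equals total damage. Spraying took place the day after sowing, using 15.625, 62.5 or 250 g/ha of compound in a 50:50 acetone/water solution with 0.5% Tween 20.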

corn (Zea mays) [2] = test: Test G Pre-Emergence Protocol; conditions: Zea mays, pre-emergence, 312 h, evaluated after 13 days
Outline: as §1

[3] = system: giant foxtail (Setaria faberi); test: Test G Pre-Emergence Protocol; conditions: Setaria faberi, pre-emergence, 312 h, evaluated after 13 days
Outline: as §1

[4] = system: ivy-leaved morning glory (Ipomoea hederacea); test: Test G Pre-Emergence Protocol; conditions: Ipomoea, pre-emergence, 312 h, evaluated after 13 days
Outline: as §1

[5] = system: redroot pigweed (Amaranthus retroflexus); test: Test G Pre-Emergence Protocol; conditions: Amaranthus retroflexus, pre-emergence, 312 h, evaluated after 13 days
Outline: as §1

[6] = system: velvetleaf (Abutilon theophrasti); test: Test G Pre-Emergence Protocol; conditions: Abutilon theophrasti, pre-emergence, 312 h, evaluated after 13 days
Outline: as §1

[7] = system: barnyardgrass (Echinochloa crus-galli); test: Test G Post-Emergence Protocol; conditions: Echinochloa crus-galli, post-emergence, 312 h
Outline: (§2)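 Eight days post-sowing, plants received a spray of test compound (acetone/water 50:50, 0.5% Tween 20) at 15.625, 62.5 or 250 g/ha. Glasshouse regime thereafter: 24/16 °C, 14 h light, 65% humidity. Assessment after 13 days on a 0–100 damage scale.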

corn (Zea mays) [8] = test: Test G Post-Emergence Protocol; conditions: Zea mays, post-emergence, 312 h
Outline: as §2

[9] = system: giant foxtail (Setaria faberi); test: Test G Post-Emergence Protocol; conditions: Setaria faberi, post-emergence, 312 h
Outline: as §2

[10] = system: ivy-leaved morning glory (Ipomoea hederacea); test: Test G Post-Emergence Protocol; conditions: Ipomoea, post-emergence, 312 h
Outline: as §2

[11] = system: redroot pigweed (Amaranthus retroflexus); test: Test G Post-Emergence Protocol; conditions: Amaranthus retroflexus, post-emergence, 312 h
Outline: as §2

[12] = system: velvetleaf (Abutilon theophrasti); test: Test G Post-Emergence Protocol; conditions: Abutilon theophrasti, post-emergence, 312 h
Outline: as §2

COc1cc([C@H]2CN(C)C(=O)[C@@H]2C(=O)Nc2ccccc2F)ccc1Cl (racemic) [Compound 1421]
50%: pest or weed control at 250 g/ha ([9]; 250 g ai/ha, evaluated after 13 days, read-out: damage to plant, Foxtail, Giant (100=total damage to plant; 0=no damage to plant))
80%: pest or weed control at 250 g/ha ([1]; 250 g ai/ha, read-out: Barnyardgrass damage rating (100=total damage to plant; 0=no damage to plant)) | pest or weed control at 62.5 g/ha ([3]; 62.5 g ai/ha, 100=total damage to plant, 0=no damage to plant, read-out: plant damage rating, Foxtail, Giant)
20%: pest or weed control at 62.5 g/ha ([7]; 62.5 g ai/ha, evaluated after 13 days, read-out: Barnyardgrass damage rating (100=total damage to plant; 0=no damage to plant)) | pest or weed control at 250 g/ha ([7]; 250 g ai/ha, evaluated after 13 days, read-out: damage to plant, Barnyardgrass (100=total damage to plant; 0=no damage to plant)) | pest or weed control at 15.625 g/ha ([9]; 15.625 g ai/ha, evaluated after 13 days (100=total damage to plant; 0=no damage to plant), read-out: Foxtail, Giant damage rating)
60%: pest or weed control at 62.5 g/ha ([1]; 62.5 g ai/ha, 100=total damage to plant, 0=no damage to plant, read-out: plant damage rating, Barnyardgrass)
10%: pest or weed control at 15.625 g/ha ([1]; 15.625 g ai/ha, read-out: Barnyard grass damage rating (100=total damage to plant; 0=no damage to plant)) | plant injury at 250 g/ha (corn (Zea mays) [2]; 250 g ai/ha, read-out: Corn damage rating (100=total damage to plant; 0=no damage to plant)) | plant injury at 15.625 g/ha (corn (Zea mays) [8]; 15.625 g ai/ha, evaluated after 13 days (100=total damage to plant; 0=no damage to plant), read-out: Corn damage rating) | plant injury at 62.5 g/ha (corn (Zea mays) [8]; 62.5 g ai/ha, evaluated after 13 days, read-out: Corn damage rating (100=total damage to plant; 0=no damage to plant)) | plant injury at 250 g/ha (corn (Zea mays) [8]; 250 g ai/ha, evaluated after 13 days, read-out: damage to plant, Corn (100=total damage to plant; 0=no damage to plant)) | pest or weed control at 15.625 g/ha ([10]; 15.625 g ai/ha, evaluated after 13 days (100=total damage to plant; 0=no damage to plant), read-out: Morningglory, Ivy-leaved damage rating) | pest or weed control at 15.625 g/ha ([12]; 15.625 g ai/ha, evaluated after 13 days (100=total damage to plant; 0=no damage to plant), read-out: Velvetleaf damage rating)
40%: pest or weed control at 62.5 g/ha ([9]; 62.5 g ai/ha, evaluated after 13 days, read-out: Foxtail, Giant damage rating (100=total damage to plant; 0=no damage to plant))
0%: plant injury at 15.625 g/ha (corn (Zea mays) [2]; 15.625 g ai/ha, read-out: Corn damage rating (100=total damage to plant; 0=no damage to plant)) | plant injury at 62.5 g/ha (corn (Zea mays) [2]; 62.5 g ai/ha, 100=total damage to plant, 0=no damage to plant, read-out: plant damage rating, Corn) | pest or weed control at 15.625 g/ha ([4]; 15.625 g ai/ha, read-out: Morning-glory, Ivy-leaved damage rating (100=total damage to plant; 0=no damage to plant)) | pest or weed control at 62.5 g/ha ([4]; 62.5 g ai/ha, 100=total damage to plant, 0=no damage to plant, read-out: plant damage rating, Morningglory, Ivy-leaved) | pest or weed control at 250 g/ha ([4]; 250 g ai/ha, read-out: Morningglory, Ivy-leaved damage rating (100=total damage to plant; 0=no damage to plant)) | pest or weed control at 15.625 g/ha ([5]; 15.625 g ai/ha, read-out: Pigweed, Redroot damage rating (100=total damage to plant; 0=no damage to plant)) | pest or weed control at 62.5 g/ha ([5]; 62.5 g ai/ha, 100=total damage to plant, 0=no damage to plant, read-out: plant damage rating, Pigweed, Redroot) | pest or weed control at 250 g/ha ([5]; 250 g ai/ha, read-out: Pigweed, Redroot damage rating (100=total damage to plant; 0=no damage to plant)) | pest or weed control at 15.625 g/ha ([6]; 15.625 g ai/ha, read-out: Velvetleaf damage rating (100=total damage to plant; 0=no damage to plant)) | pest or weed control at 62.5 g/ha ([6]; 62.5 g ai/ha, 100=total damage to plant, 0=no damage to plant, read-out: plant damage rating, Velvetleaf) | pest or weed control at 250 g/ha ([6]; 250 g ai/ha, read-out: Velvetleaf damage rating (100=total damage to plant; 0=no damage to plant)) | pest or weed control at 15.625 g/ha ([7]; 15.625 g ai/ha, evaluated after 13 days (100=total damage to plant; 0=no damage to plant), read-out: Barnyardgrass damage rating) | pest or weed control at 62.5 g/ha ([10]; 62.5 g ai/ha, evaluated after 13 days, read-out: Morningglory, Ivy-leaved damage rating (100=total damage to plant; 0=no damage to plant)) | pest or weed control at 250 g/ha ([10]; 250 g ai/ha, evaluated after 13 days, read-out: damage to plant, Morningglory, Ivy-leaved (100=total damage to plant; 0=no damage to plant)) | pest or weed control at 15.625 g/ha ([11]; 15.625 g ai/ha, evaluated after 13 days (100=total damage to plant; 0=no damage to plant), read-out: Pigweed, Redroot damage rating) | pest or weed control at 62.5 g/ha ([11]; 62.5 g ai/ha, evaluated after 13 days, read-out: Pigweed, Redroot damage rating (100=total damage to plant; 0=no damage to plant)) | pest or weed control at 250 g/ha ([11]; 250 g ai/ha, evaluated after 13 days, read-out: damage to plant, Pigweed, Redroot (100=total damage to plant; 0=no damage to plant)) | pest or weed control at 62.5 g/ha ([12]; 62.5 g ai/ha, evaluated after 13 days, read-out: Velvetleaf damage rating (100=total damage to plant; 0=no damage to plant)) | pest or weed control at 250 g/ha ([12]; 250 g ai/ha, evaluated after 13 days, read-out: damage to plant, Velvetleaf (100=total damage to plant; 0=no damage to plant))
70%: pest or weed control at 15.625 g/ha ([3]; 15.625 g ai/ha, read-out: Foxtail, Giant damage rating (100=total damage to plant; 0=no damage to plant))
90%: pest or weed control at 250 g/ha ([3]; 250 g ai/ha, read-out: Foxtail, Giant damage rating (100=total damage to plant; 0=no damage to plant))

From patent US12077503B2, “Substituted cyclic amides and their use as herbicides” (FMC CORPORATION, priority 2015, dated 2024)
